Legend:
[1] = decomposition of calcium hypochlorite under ambient light; type: physicochemical; conditions: 200 mg/ml, 37° C., without stabilization in alginate-calcium hydrogel
Experimental: In one embodiment, the interactions of calcium hypochlorite and alginate control the release of chlorine over time, which allows prolonged and continuous exposure. Without stabilization of calcium hypochlorite in alginate-calcium hydrogel, calcium hypochlorite at a concentration of 200 mg/ml is decomposed under ambient light within 30 min at 37° C. In a composition containing 1% alginate tested at room temperature (without exposing to light), about 40-50% of chlorine was released over 2 hr test period for all calcium hypochlorite concentrations tested (FIG. 2). […] It is understood that the physical structure of the gel can take the form of particles, sheets, or appropriate structure to optimize the surface suitable for release of the active hypohalite form.

[2] = test system: onychomycosis; conditions: topical formulations; do not penetrate the nail; cited from earlier work
[3] = test system: XL-1 antibiotic resistant bacteria; conditions: 30 and 60 mg/ml, 16 hr and 40 hr
Experimental: FIGS. 11A-11D are images of agar plates seeded with XL-1 antibiotic resistant bacteria comparing the effectiveness of sodium hypochlorite (11A and 11C) and calcium hypochlorite (11B and 11D) at 16 hr (11A and 11B) and 40 hr (11C and 11D). Sodium hypochlorite (11A and 11C): 0, water; 1 30 mg/ml with alginate; 2, 60 mg/ml with alginate; 3, 60 mg/ml without alginate; 4, 30 mg/ml without alginate. Calcium hypochlorite (11B and 11D): 0, water; 1 25 mg/ml with alginate; 2, 50 mg/ml with alginate; 3, 50 mg/ml without alginate; 4, 25 mg/ml without alginate.

| Compound | effectiveness for onychomycosis [2] | other results |
| --- | --- | --- |
| [Ca+2].[O-]Cl.[O-]Cl [calcium hypochlorite] |  | time to decomposition [1]: ≤ 30 min |
| Clc1ccccc1C(c1ccccc1)(c1ccccc1)n1ccnc1 [clotrimazole] | totally ineffective |  |
| CN(C/C=C/C#CC(C)(C)C)Cc1cccc2ccccc12 [terbinafine] | totally ineffective |  |
| sodium chlorite |  | effectiveness with vs without alginate [3]: not affected by the presence of alginate |

Reference: patent US20140255476A1, “COMPOSITIONS, DEVICES, AND METHODS FOR TREATING INFECTIONS” (University of Washington through its Center for …, priority 2011, published 2014)
